Where a name gives a salt, the structure may show the parent alone. Values belong to the compound of their own block, whether it stands above or below them. The source made the active and inactive calls. The rule behind the calls is not given here. Peptide text beside a SMILES is read from it.
What was measured:
[1] = molecular target: T1, L-lactate dehydrogenase B chain (Homo sapiens, UniProt P07195); test: Binding affinity to full length human N-terminal His6-tagged LDH-H expressed in Escherichia coli Rosetta (DE3) assessed as effect on tetramerization site at 100 to 200 uM in sodium phosphate buffer at pH 7.6 by WaterLOGSY NMR analysis
Target sequence in this assay (P07195 2-334 limits assumed): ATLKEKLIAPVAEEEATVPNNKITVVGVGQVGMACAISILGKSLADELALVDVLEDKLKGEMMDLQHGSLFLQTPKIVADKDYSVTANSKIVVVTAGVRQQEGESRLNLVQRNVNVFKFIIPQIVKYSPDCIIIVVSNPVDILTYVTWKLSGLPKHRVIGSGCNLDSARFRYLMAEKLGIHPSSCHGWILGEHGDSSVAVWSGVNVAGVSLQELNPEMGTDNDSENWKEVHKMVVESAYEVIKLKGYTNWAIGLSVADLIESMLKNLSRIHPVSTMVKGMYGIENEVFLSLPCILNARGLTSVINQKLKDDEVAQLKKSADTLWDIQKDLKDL

[2] = Conformational stability in sodium phosphate buffer assessed as helical structural propensity at 200 uM and pH 7.6 at 25 degree C by circular dichroism method; assay type: physicochemical; conditions: pH 7.6, 200 µM
[3] = molecular target: T1, L-lactate dehydrogenase B chain; test: Binding affinity to truncated human N-terminal His6-tagged LDH-H expressed in Escherichia coli Rosetta (DE3) after 5 mins by Red-NHS fluorescence dye-based microscale thermophoresis analysis
[4] = molecular target: T1, L-lactate dehydrogenase B chain; test: Binding affinity to truncated human N-terminal His6-tagged LDH-H expressed in Escherichia coli Rosetta (DE3) in sodium phosphate buffer at pH 7.6 by WaterLOGSY NMR analysis
Target sequence in this assay (P07195 2-334 limits assumed): as above

[5] = Conformational stability in sodium phosphate buffer assessed as increase in alpha-helicity with theta 222 band formation at 100 uM by circular dichroism method; assay type: physicochemical
[6] = molecular target: T1, L-lactate dehydrogenase B chain; test: Binding affinity to full length human N-terminal His6-tagged LDH-H expressed in Escherichia coli Rosetta (DE3) assessed as saturation transfer at lipophilic residues at 800 uM in sodium phosphate buffer at pH 7.6 by WaterLOGSY NMR analysis
Target sequence in this assay (P07195 2-334 limits assumed): as above

[7] = molecular target: T1, L-lactate dehydrogenase B chain; test: Binding affinity to recombinant full length human His-tagged LDH-1 (1 to 322 residues) expressed in Escherichia coli by WaterLOGSY NMR analysis
Target sequence in this assay (P07195 whole entry): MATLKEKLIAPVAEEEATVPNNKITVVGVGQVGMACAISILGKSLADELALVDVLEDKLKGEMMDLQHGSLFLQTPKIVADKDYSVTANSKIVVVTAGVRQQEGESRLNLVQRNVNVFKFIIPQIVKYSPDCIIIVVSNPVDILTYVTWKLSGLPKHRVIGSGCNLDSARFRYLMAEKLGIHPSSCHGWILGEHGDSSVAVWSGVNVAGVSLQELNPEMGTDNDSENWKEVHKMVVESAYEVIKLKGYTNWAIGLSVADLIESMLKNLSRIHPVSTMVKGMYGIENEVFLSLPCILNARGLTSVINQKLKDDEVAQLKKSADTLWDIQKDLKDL

[8] = molecular target: T1, L-lactate dehydrogenase B chain; test: Binding affinity to full length human N-terminal His6-tagged LDH-H expressed in Escherichia coli Rosetta (DE3) in sodium phosphate buffer at pH 7.6 by WaterLOGSY NMR analysis
Target sequence in this assay (P07195 whole entry): as above

[9] = Conformational stability in water assessed as helical structural propensity by 2D NMR-ROESY analysis; assay type: physicochemical; conditions: buffer
[10] = Conformational stability in water assessed as helical structural propensity by circular dichroism method; assay type: physicochemical; conditions: buffer
[11] = molecular target: L-lactate dehydrogenase A chain (Oryctolagus cuniculus) (UniProt P13491); test: Binding affinity to rabbit LDH-5 assessed as acid-induced dimerization by measuring fluorescence recovery at 50 uM pH 7.6 by nano differential scanning fluorimetry analysis
[12] = test system: L-lactate dehydrogenase B chain (Homo sapiens), P07195 [E6A]; test: Binding affinity to full length human N-terminal His6-tagged LDH-H E5A mutant expressed in Escherichia coli Rosetta (DE3) assessed as melting temperature heated up to 95 degree C for 3 mins by nano differential scanning fluorimetry analysis
[13] = test system: L-lactate dehydrogenase B chain (Homo sapiens), P07195 [L8A]; test: Binding affinity to full length human N-terminal His6-tagged LDH-H L7A mutant expressed in Escherichia coli Rosetta (DE3) assessed as melting temperature heated up to 95 degree C for 3 mins by nano differential scanning fluorimetry analysis
[14] = test system: L-lactate dehydrogenase B chain (Homo sapiens), P07195 [I9A]; test: Binding affinity to full length human N-terminal His6-tagged LDH-H I8A mutant expressed in Escherichia coli Rosetta (DE3) assessed as changed in melting temperature heated up to 95 degree C for 3 mins by nano differential scanning fluorimetry analysis
[15] = test system: L-lactate dehydrogenase B chain (Homo sapiens), P07195 [I9A]; test: Binding affinity to full length human N-terminal His6-tagged LDH-H I8A mutant expressed in Escherichia coli Rosetta (DE3) assessed as melting temperature heated up to 95 degree C for 3 mins by nano differential scanning fluorimetry analysis
[16] = molecular target: L-lactate dehydrogenase B chain (Homo sapiens, UniProt P07195, T3A); test: Binding affinity full length human N-terminal His6-tagged LDH-H T2A mutant expressed in Escherichia coli Rosetta (DE3) assessed as tetrameric disruption by nano differential scanning fluorimetry analysis
[17] = test system: L-lactate dehydrogenase B chain (Homo sapiens), P07195 [L4A]; test: Binding affinity to full length human N-terminal His6-tagged LDH-H L3A mutant expressed in Escherichia coli Rosetta (DE3) assessed as melting temperature heated up to 95 degree C for 3 mins by nano differential scanning fluorimetry analysis
[18] = molecular target: L-lactate dehydrogenase B chain (Homo sapiens, UniProt P07195, K7A); test: Binding affinity full length human N-terminal His6-tagged LDH-H K6A mutant expressed in Escherichia coli Rosetta (DE3) assessed as tetrameric disruption by nano differential scanning fluorimetry analysis
[19] = molecular target: L-lactate dehydrogenase B chain (Homo sapiens, UniProt P07195, K5A); test: Binding affinity full length human N-terminal His6-tagged LDH-H K4A mutant expressed in Escherichia coli Rosetta (DE3) assessed as tetrameric disruption by nano differential scanning fluorimetry analysis
[20] = test system: L-lactate dehydrogenase B chain (Homo sapiens), P07195 [K7A]; test: Binding affinity to full length human N-terminal His6-tagged LDH-H K6A mutant expressed in Escherichia coli Rosetta (DE3) assessed as melting temperature heated up to 95 degree C for 3 mins by nano differential scanning fluorimetry analysis
[21] = molecular target: L-lactate dehydrogenase B chain (Homo sapiens, UniProt P07195, I9A); test: Binding affinity full length human N-terminal His6-tagged LDH-H I8A mutant expressed in Escherichia coli Rosetta (DE3) assessed as tetrameric disruption by nano differential scanning fluorimetry analysis
[22] = molecular target: L-lactate dehydrogenase B chain (Homo sapiens, UniProt P07195, L4A); test: Binding affinity full length human N-terminal His6-tagged LDH-H L3A mutant expressed in Escherichia coli Rosetta (DE3) assessed as tetrameric disruption by nano differential scanning fluorimetry analysis
[23] = molecular target: T1, L-lactate dehydrogenase B chain; test: Binding affinity to truncated human N-terminal His6-tagged LDH-H expressed in Escherichia coli Rosetta (DE3) assessed as melting temperature heated up to 95 degree C for 3 mins by nano differential scanning fluorimetry analysis
Target sequence in this assay (P07195 2-334 limits assumed): as the sequence (P07195 2-334 limits assumed) above

[24] = test system: L-lactate dehydrogenase B chain (Homo sapiens), P07195 [K5A]; test: Binding affinity to full length human N-terminal His6-tagged LDH-H K4A mutant expressed in Escherichia coli Rosetta (DE3) assessed as melting temperature heated up to 95 degree C for 3 mins by nano differential scanning fluorimetry analysis
[25] = test system: L-lactate dehydrogenase B chain (Homo sapiens), P07195 [T3A]; test: Binding affinity to full length human N-terminal His6-tagged LDH-H T2A mutant expressed in Escherichia coli Rosetta (DE3) assessed as melting temperature heated up to 95 degree C for 3 mins by nano differential scanning fluorimetry analysis
[26] = test system: L-lactate dehydrogenase B chain (Homo sapiens), P07195 [L4A]; test: Binding affinity to full length human N-terminal His6-tagged LDH-H L3A mutant expressed in Escherichia coli Rosetta (DE3) assessed as change in melting temperature heated up to 95 degree C for 3 mins by nano differential scanning fluorimetry analysis
[27] = molecular target: T1, L-lactate dehydrogenase B chain; test: Binding affinity to full length human N-terminal His6-tagged LDH-H expressed in Escherichia coli Rosetta (DE3) assessed as melting temperature heated up to 95 degree C for 3 mins by nano differential scanning fluorimetry analysis
Target sequence in this assay (P07195 2-334 limits assumed): as above

[28] = molecular target: T1, L-lactate dehydrogenase B chain; test: Binding affinity to recombinant full length human His-tagged LDH-1 (1 to 322 residues) expressed in Escherichia coli assessed as thermal denaturation up to 500 uM by nano differential scanning fluorimetry analysis
Target sequence in this assay (P07195 2-334 limits assumed): as above

[29] = molecular target: T1, L-lactate dehydrogenase B chain; test: Competitive binding affinity to recombinant full length human His-tagged LDH-1 (1 to 322 residues) expressed in Escherichia coli assessed as protein-compound interaction at N-terminal domain after 5 mins by Red-NHS fluorescence dye based microscale thermophoresis analysis
[30] = molecular target: T2, L-lactate dehydrogenase A chain (Homo sapiens, UniProt P00338); test: Competitive binding affinity to human N-terminal His6-tagged LDH-5 expressed in Escherichia coli Rosetta (DE3) assessed as protein-compound interaction at N-terminal domain after 5 mins by Red-NHS fluorescence dye-based microscale thermophoresis analysis
[31] = Conformational stability in sodium phosphate buffer assessed as increase in alpha-helicity with strong theta 206 band formation at 100 uM by circular dichroism method; assay type: physicochemical
[32] = molecular target: T2, L-lactate dehydrogenase A chain; test: Binding affinity to human N-terminal His6-tagged LDH-5 expressed in Escherichia coli Rosetta (DE3) assessed as thermal denaturation up to 500 uM by nano differential scanning fluorimetry analysis
[33] = molecular target: L-lactate dehydrogenase A chain (Oryctolagus cuniculus) (UniProt P13491); test: Binding affinity to rabbit LDH-M assessed as acid-induced dimerization by measuring fluorescence recovery at pH 5 by nano differential scanning fluorimetry analysis
[34] = molecular target: L-lactate dehydrogenase A chain (Oryctolagus cuniculus) (UniProt P13491); test: Binding affinity to rabbit LDH-5 assessed as acid-induced dimerization by measuring fluorescence recovery at pH 7.6 by nano differential scanning fluorimetry analysis

Chain of L-lactate dehydrogenase B chain (Homo sapiens), P07195 [I9A] (P07195 whole entry I9A): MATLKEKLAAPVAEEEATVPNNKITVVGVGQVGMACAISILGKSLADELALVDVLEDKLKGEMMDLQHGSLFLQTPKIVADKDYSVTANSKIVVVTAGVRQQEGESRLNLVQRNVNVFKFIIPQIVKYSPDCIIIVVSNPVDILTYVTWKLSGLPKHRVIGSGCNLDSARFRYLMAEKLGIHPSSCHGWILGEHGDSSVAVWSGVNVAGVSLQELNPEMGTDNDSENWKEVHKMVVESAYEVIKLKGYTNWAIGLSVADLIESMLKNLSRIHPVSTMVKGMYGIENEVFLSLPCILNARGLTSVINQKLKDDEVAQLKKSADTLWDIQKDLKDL
Chain of L-lactate dehydrogenase B chain (Homo sapiens), P07195 [L4A] (P07195 whole entry L4A): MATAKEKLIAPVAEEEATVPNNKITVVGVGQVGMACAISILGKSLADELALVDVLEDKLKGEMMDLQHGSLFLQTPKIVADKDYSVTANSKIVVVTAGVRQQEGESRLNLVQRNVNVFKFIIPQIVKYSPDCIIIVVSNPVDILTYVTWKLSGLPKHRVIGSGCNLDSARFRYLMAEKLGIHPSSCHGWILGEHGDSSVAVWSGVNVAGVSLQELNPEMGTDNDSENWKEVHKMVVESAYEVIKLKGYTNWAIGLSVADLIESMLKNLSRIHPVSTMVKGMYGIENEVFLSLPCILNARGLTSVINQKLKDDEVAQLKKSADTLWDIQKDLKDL
Chain of L-lactate dehydrogenase B chain (Homo sapiens, UniProt P07195, L4A) (P07195 2-334 L4A limits assumed): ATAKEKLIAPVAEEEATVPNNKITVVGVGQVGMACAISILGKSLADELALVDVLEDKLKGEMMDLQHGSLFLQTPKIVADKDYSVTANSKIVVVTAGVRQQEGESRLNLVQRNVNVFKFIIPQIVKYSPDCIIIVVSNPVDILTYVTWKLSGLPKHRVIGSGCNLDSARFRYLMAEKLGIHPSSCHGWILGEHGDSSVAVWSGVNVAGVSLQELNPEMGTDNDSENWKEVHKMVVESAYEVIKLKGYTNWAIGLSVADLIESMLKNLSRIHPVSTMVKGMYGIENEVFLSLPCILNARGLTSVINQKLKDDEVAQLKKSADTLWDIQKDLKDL
Chain of L-lactate dehydrogenase B chain (Homo sapiens), P07195 [K5A] (P07195 whole entry K5A): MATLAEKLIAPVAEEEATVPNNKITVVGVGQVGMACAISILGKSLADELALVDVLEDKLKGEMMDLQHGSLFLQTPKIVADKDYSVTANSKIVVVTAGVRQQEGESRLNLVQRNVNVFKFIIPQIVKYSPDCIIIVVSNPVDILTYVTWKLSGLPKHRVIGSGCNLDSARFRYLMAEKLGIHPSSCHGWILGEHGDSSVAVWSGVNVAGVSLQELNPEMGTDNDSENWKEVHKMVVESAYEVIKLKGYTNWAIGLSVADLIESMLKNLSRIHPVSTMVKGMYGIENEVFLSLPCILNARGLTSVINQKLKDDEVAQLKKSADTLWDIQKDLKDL
Chain of L-lactate dehydrogenase B chain (Homo sapiens), P07195 [K7A] (P07195 whole entry K7A): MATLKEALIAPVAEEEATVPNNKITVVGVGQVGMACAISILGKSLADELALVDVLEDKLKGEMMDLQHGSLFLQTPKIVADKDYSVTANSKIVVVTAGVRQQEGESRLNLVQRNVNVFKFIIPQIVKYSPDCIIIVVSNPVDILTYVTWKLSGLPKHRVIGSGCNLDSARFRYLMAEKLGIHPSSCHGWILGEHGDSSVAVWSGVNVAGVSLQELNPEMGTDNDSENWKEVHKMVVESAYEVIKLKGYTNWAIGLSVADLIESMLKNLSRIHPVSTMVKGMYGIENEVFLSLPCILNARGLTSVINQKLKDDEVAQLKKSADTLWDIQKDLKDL
Chain of L-lactate dehydrogenase B chain (Homo sapiens), P07195 [T3A] (P07195 whole entry T3A): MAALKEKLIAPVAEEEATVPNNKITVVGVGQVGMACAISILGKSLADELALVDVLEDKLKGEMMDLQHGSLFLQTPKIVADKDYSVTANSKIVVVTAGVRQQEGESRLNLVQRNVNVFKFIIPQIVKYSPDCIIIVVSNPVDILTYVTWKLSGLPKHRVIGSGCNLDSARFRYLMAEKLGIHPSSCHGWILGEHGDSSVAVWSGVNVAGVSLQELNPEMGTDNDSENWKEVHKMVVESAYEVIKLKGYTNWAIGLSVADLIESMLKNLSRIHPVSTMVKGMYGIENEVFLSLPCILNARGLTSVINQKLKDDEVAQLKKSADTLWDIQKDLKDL
Chain of L-lactate dehydrogenase B chain (Homo sapiens), P07195 [L8A] (P07195 whole entry L8A): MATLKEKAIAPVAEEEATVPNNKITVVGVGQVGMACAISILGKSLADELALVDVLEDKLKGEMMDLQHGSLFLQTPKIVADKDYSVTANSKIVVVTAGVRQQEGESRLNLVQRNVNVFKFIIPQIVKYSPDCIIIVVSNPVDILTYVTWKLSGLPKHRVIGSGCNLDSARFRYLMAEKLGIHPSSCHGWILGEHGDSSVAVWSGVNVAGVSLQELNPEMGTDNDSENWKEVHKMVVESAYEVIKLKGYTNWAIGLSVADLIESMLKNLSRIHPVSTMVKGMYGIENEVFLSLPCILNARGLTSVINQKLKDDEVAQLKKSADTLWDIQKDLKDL
Chain of L-lactate dehydrogenase B chain (Homo sapiens, UniProt P07195, K5A) (P07195 2-334 K5A limits assumed): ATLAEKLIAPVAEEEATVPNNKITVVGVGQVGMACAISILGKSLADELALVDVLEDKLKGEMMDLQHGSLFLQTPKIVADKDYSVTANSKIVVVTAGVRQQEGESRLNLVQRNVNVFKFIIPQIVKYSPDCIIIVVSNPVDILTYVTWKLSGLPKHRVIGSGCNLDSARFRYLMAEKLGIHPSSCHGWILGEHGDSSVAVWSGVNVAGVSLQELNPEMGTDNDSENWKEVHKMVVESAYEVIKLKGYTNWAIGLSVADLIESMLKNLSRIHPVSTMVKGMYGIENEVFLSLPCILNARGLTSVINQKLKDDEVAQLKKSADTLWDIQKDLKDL
Chain of L-lactate dehydrogenase B chain (Homo sapiens), P07195 [E6A] (P07195 whole entry E6A): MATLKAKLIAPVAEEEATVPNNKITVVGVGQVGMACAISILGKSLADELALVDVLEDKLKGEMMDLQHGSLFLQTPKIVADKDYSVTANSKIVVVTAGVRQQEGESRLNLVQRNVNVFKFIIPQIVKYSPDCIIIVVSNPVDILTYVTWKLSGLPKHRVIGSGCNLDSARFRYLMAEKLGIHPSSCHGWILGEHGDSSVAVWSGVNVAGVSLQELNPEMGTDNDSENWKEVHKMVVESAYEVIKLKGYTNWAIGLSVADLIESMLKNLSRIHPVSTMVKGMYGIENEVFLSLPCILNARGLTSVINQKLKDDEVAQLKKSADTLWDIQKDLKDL
Chain of L-lactate dehydrogenase B chain (Homo sapiens, UniProt P07195, T3A) (P07195 2-334 T3A limits assumed): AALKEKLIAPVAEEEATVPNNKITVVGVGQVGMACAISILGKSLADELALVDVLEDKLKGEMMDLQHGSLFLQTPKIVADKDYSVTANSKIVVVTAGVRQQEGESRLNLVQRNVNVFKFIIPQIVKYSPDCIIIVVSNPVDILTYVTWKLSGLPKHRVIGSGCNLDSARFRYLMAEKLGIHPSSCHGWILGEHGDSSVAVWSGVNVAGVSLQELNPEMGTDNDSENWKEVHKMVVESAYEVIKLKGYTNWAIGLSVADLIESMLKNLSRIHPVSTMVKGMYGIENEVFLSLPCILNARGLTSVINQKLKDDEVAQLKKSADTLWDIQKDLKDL
Chain of L-lactate dehydrogenase B chain (Homo sapiens, UniProt P07195, K7A) (P07195 2-334 K7A limits assumed): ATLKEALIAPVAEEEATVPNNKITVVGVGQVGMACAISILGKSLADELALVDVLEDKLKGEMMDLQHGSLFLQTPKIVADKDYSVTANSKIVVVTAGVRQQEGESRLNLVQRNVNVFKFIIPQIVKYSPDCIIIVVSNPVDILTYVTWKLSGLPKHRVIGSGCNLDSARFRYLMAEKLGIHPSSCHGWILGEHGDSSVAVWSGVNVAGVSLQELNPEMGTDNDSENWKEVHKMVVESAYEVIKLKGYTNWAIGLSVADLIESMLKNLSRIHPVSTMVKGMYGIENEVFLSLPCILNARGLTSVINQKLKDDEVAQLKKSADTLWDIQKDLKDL

Compound: Ac-TLKEKLI-NH2
Activity [1]: inactive
Stability [2]: Unstable

Compound: H-ATLKEKL-NH2
Activity [1]: inactive
Stability [2]: Unstable

Compound: H-GTLKEKLI-NH2
Activity [1]: inactive

Compound: H-ATLKEKLA-NH2
Activity [1]: inactive

Compound: H-ATGKEKLI-NH2
Activity [1]: inactive

Compound: H-ATLKEKAI-NH2
Activity [1]: inactive

Compound: H-AALKEKLI-NH2
Activity [1]: inactive

Compound: CC[C@H](C)[C@@H]1NC(=O)[C@H](CC(C)C)NC(=O)[C@@H](NC(=O)[C@H](CCC(=O)O)NC(=O)[C@H](CCCCN)NC(=O)[C@H](CC(C)C)NC(=O)[C@@H](NC(=O)[C@H](C)N)[C@@H](C)O)CSCc2cccc(c2)CSC[C@@H](C(N)=O)NC(=O)[C@H](C)NC1=O (HELM PEPTIDE1{A.T.L.K.E.C.L.I.A.C.[am]}|CHEM1{[c1cc(C[*:1])cc(C[*:2])c1]}$PEPTIDE1,CHEM1,6:R3-1:R1|PEPTIDE1,CHEM1,10:R3-1:R2$$$V2.0)
Kd [3]: > 1 mM

Compound: H-ATLKAKLI-NH2
Activity [1]: inactive

Second part, the compound after the results:

Activity [3]: inactive
Activity [4]: Active
Compound: CC[C@H](C)[C@H](NC(=O)[C@H](CC(C)C)NC(=O)[C@H](CCCCN)NC(=O)[C@H](CCC(=O)O)NC(=O)C(C)(C)NC(=O)[C@H](CC(C)C)NC(=O)[C@@H](NC(=O)[C@H](C)N)[C@@H](C)O)C(N)=O (HELM PEPTIDE1{A.T.L.[Aib].E.K.L.I.[am]}$$$$V2.0)

Activity [1]: inactive
Compound: H-ATLKEALI-NH2

Activity [1]: inactive
Compound: H-ATAKEKLI-NH2

Activity [1]: inactive
Compound: H-ATLKEKLG-NH2

Stability [5]: Stable
Activity [6]: Active
Activity [7]: Not Active
Kd [8]: 1.02 mM
Stability [9]: Unstable
Stability [10]: Unstable
Activity [11]: Active
Compound: H-ATLKEKLI-NH2

Activity [3]: inactive
Activity [4]: Active
Compound: CC[C@H](C)[C@H](NC(=O)[C@H](CC(C)C)NC(=O)C(C)(C)NC(=O)[C@H](CCC(=O)O)NC(=O)[C@H](CCCCN)NC(=O)[C@H](CC(C)C)NC(=O)[C@@H](NC(=O)[C@H](C)N)[C@@H](C)O)C(N)=O (HELM PEPTIDE1{A.T.L.K.E.[Aib].L.I.[am]}$$$$V2.0)

Kd [8]: 1.05 mM
Compound: H-ATLKEKLIAPVAE-NH2

Kd [3]: > 1 mM
Compound: CC[C@H](C)C(NC(=O)[C@H](CC(C)C)NC(=O)[C@H](CCCCN)NC(=O)[C@H](CCC(=O)O)NC(=O)[C@@H]1CSCc2cccc(c2)CSC[C@H](N)C(=O)N[C@@H](C)C(=O)N[C@@H]([C@@H](C)O)C(=O)N[C@@H](CC(C)C)C(=O)N1)C(N)=O (stereo partly drawn) (HELM PEPTIDE1{C.A.T.L.C.E.K.L.[CC[C@H](C)C(N[*:1])C(=O)[*:2]].[am]}|CHEM1{[c1cc(C[*:1])cc(C[*:2])c1]}$PEPTIDE1,CHEM1,1:R3-1:R1|PEPTIDE1,CHEM1,5:R3-1:R2$$$V2.0)

Activity [1]: inactive
Compound: H-ATLAEKLI-NH2

Kd [3]: > 1 mM
Compound: CC[C@H](C)[C@@H]1NC(=O)[C@H](CC(C)C)NC(=O)[C@@H](NC(=O)[C@H](CCC(=O)O)NC(=O)[C@H](CCCCN)NC(=O)[C@H](CC(C)C)NC(=O)[C@@H](NC(=O)[C@H](C)N)[C@@H](C)O)CCCCNC1=O (HELM PEPTIDE1{A.T.L.K.E.K.L.I}$PEPTIDE1,PEPTIDE1,6:R3-8:R2$$$V2.0)

Tm [12]: 73.3 °C
Tm [13]: 55.6 °C
ΔTm [14]: 24.6 °C
Tm [15]: 49.9 °C
EC50 [16]: 978 mM
Tm [17]: 61.2 °C
EC50 [18]: 954 mM
EC50 [19]: 991 mM
Tm [20]: 67.9 °C
EC50 [21]: 233 mM
EC50 [22]: 624 mM
Tm [23]: 57.5 °C
Tm [24]: 65.8 °C
Tm [25]: 72.4 °C
ΔTm [26]: 13.3 °C
Tm [27]: 74.5 °C
Compound: N=C(N)N [GUANIDINE HYDROCHLORIDE]

Activity [28]: inactive
Activity [29]: inactive
Activity [30]: inactive
Stability [31]: Stable
Activity [32]: inactive
Activity [33]: inactive
Activity [34]: Active
Compound: CC[C@H](C)[C@H](NC(=O)[C@H](CC(C)C)NC(=O)[C@H](CCCCN)NC(=O)[C@@H]1CSCc2cccc(c2)CSC[C@H](N)C(=O)N[C@@H]([C@@H](C)O)C(=O)N[C@@H](CC(C)C)C(=O)N[C@@H](CCCCN)C(=O)N1)C(N)=O (HELM PEPTIDE1{C.T.L.K.C.K.L.I.[am]}|CHEM1{[c1cc(C[*:1])cc(C[*:2])c1]}$PEPTIDE1,CHEM1,1:R3-1:R1|PEPTIDE1,CHEM1,5:R3-1:R2$$$V2.0)

Kd [8]: 1.49 mM
Compound: H-ATLKDQLI-OH

Source: ChEMBL document CHEMBL4402594, “Interrogating the Lactate Dehydrogenase Tetramerization Site Using (Stapled) Peptides” (J Med Chem, 2020)
